In one assay the target is T1, AVP-V₁ sites (Rattus norvegicus, UniProt P30560).
T1 construct: a crude membrane preparation of male rat liver (AVP-V₁ sites); from tissue; host or cells: male rat liver, crude membrane preparation
The experiment in a line: [³H]AVP radioligand binding, crude membrane preparation of male rat liver (AVP-V₁ sites). Conditions: for inhibition at 10 µM: 10 µM test compound, % of specific [³H]AVP binding inhibited (liver), read-out: Inhibition Vasopressin V1 % inhibition @ 10; for IC50: 1 nM [³H]AVP, rat liver membranes, 30 min at 30°C, read-out: Inhibition Vasopressin V1 IC50. From the text:
(§1) *Inhibition is expressed either as IC₅₀ in µM, or as % inhibition @ a specified concentration of the test compound (µM). The IC₅₀ is the concentration of the text compound which inhibits specific binding by 50%. The % inhibition at a specified concentration of the test compound is that percentage of specific binding which is inhibited by said concentration of said test compound.

For a further assay, the target named is T2, AVP-V₂ sites (Rattus norvegicus, UniProt Q00788).
T2 construct: male rat liver (AVP-V₁ sites) or kidney medulla (AVP-V₂ sites); from tissue; host or cells: male rat kidney medulla, crude membrane preparation
The experiment in a line: [³H]AVP radioligand binding, crude membrane preparation of male rat kidney medulla (AVP-V₂ sites). Particulars: for inhibition at 10 µM: 10 µM test compound, % of specific [³H]AVP binding inhibited (kidney), read-out: Inhibition Vasopressin V2 % inhibition @ 10.
Excerpt: as §1

The target in the next assay is T3, uterine OT receptors (Rattus norvegicus, UniProt P70536).
T3 construct: a crude membrane preparation of uteri; from tissue; host or cells: uterus of DES-treated rats, crude membrane preparation
T3 sequence (P70536 1-388): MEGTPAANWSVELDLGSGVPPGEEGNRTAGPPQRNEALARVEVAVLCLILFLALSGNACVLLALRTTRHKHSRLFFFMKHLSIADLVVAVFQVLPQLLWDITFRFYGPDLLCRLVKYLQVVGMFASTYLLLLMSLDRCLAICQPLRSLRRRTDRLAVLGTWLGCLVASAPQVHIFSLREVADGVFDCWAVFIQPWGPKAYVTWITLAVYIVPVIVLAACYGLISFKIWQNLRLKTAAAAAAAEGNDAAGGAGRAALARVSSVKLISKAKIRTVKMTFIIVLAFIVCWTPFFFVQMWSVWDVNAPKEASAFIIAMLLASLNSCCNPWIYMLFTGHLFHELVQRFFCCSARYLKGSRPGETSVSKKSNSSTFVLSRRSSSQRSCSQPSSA
The experiment in a line: [³H]OT radioligand binding to uterine OT receptors, crude membrane preparation of uteri from DES-treated rats. As to the method:
Competition studies were conducted at equilibrium (60 min; 22°C) using 1 nM [³H]OT in the following assay buffer: 50 mM Tris-HCl, 5 mM MgCl₂, and 0.1% BSA, pH 7.4.
as §1

Broadly, the inhibition is the relative decrease from the control value, in per cent. The IC50 is the midpoint of a concentration-inhibition curve.

T2 sequence (Q00788 whole entry): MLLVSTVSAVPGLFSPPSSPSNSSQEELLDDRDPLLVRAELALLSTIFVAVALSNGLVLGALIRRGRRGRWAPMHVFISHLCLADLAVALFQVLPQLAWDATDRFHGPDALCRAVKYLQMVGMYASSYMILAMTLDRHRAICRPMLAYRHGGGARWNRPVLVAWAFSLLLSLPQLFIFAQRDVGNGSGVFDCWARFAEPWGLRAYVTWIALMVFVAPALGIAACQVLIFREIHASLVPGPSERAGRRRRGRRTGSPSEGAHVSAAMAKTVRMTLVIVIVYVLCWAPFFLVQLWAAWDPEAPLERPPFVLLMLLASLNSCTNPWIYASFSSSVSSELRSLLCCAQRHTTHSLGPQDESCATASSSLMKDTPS
T1 sequence (P30560 whole entry): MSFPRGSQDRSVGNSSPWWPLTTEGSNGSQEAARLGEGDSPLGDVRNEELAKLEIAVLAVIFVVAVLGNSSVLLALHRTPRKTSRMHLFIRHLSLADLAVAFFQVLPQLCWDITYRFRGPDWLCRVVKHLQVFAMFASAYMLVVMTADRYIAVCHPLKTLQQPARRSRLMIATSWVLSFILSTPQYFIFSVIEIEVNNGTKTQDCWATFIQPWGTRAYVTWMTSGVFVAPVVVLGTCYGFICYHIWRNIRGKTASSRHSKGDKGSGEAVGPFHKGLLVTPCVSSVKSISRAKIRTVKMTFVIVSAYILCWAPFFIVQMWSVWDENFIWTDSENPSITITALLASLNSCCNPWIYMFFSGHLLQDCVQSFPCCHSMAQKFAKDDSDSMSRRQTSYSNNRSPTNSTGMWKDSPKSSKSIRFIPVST

In the case of `CC1(C)[C@@H]2CC[C@@]1(CS(=O)(=O)N1CCC3(C=Cc4ccccc43)CC1)[C@](C)(O)C2` [Example 13, EXO-(1S)-1′-(((2-HYDROXY-2,7,7-TRIMETHYLBICYCLO-(2.2.1)HEPT-1-YL)METHYL)SULFONYL)SPIRO(1H-INDENE-1,4′-PIPERIDINE)], the inhibition at 10 µM at AVP-V₁ sites turned out to be 45%; at AVP-V₂ sites, 5%.

Take `CC1(C)[C@H]2CC[C@]1(CS(=O)(=O)N1CCC3(C=Cc4ccccc43)CC1)C(=O)C2` [Example 7]: the inhibition at 10 µM on AVP-V₁ sites was determined as 0%; on AVP-V₂ sites, 6%.

Take `CC1(C)[C@@H]2CC[C@@]1(CS(=O)(=O)N1CCC3(C=Cc4ccccc43)CC1)C(=O)C2` [Example 6]: the inhibition at 10 µM was determined as 2% on AVP-V₁ sites and 3% at AVP-V₂ sites.

As to `CCC1(O)CC2CC[C@]1(CS(=O)(=O)N1CCC3(C=Cc4ccccc43)CC1)C2(C)C` (stereo partly drawn) [Example 15], the IC50 on uterine OT receptors is 470 nM; at AVP-V₁ sites, roughly 9000 nM.

`COC(=O)C[C@@]1(O)C[C@H]2CC[C@]1(CS(=O)(=O)N1CCC3(C=Cc4ccccc43)CC1)C2(C)C` [Example 19, (1S(1.ALPHA.,2.ALPHA.,4.ALPHA.))-2-HYDROXY-7,7-DIMETHYL-1-((SPIRO(1H-INDENE-1,4′-PIPERIDIN)-1′-YLSULFONYL)METHYL)BICYCLO(2.2.1)HEPTANE-2-ACETIC ACID METHYL ESTER]: the inhibition at 10 µM was 54% on AVP-V₁ sites and 20% at AVP-V₂ sites.

Regarding `CC1(C)[C@@H]2CC[C@@]1(CS(=O)(=O)N1CCC3(C=Cc4ccccc43)CC1)[C@@](O)(CC(=O)O)C2` [Example 20, (1S(1.ALPHA.,2.ALPHA.,4.ALPHA.))-2-HYDROXY-7,7-DIMETHYL-1-((SPIRO(1H-INDENE-1,4′-PIPERIDIN)-1′-YLSULFONYL)METHYL)-BICYCLO-(2.2.1)HEPTANE-2-ACETIC ACID], the IC50 on uterine OT receptors came out at 570 nM; on AVP-V₁ sites, 89000 nM; on AVP-V₂ sites (2 nM [³H]AVP, rat kidney medulla membranes, 30 min at 30°C, read-out: Inhibition Vasopressin V2 IC50), 83000 nM.

`CC1(C)[C@@H]2CC[C@@]1(CS(=O)(=O)N1CCC3(C=Cc4ccccc43)CC1)C(O)(c1ccccc1)C2` (stereo partly drawn) [Example 11] came in with an IC50 on uterine OT receptors of 490 nM.

Take [³H]OT [reference compound]: the Kd with uterine OT receptors (radioligand, uterus, read-out: Kd values obtained from saturation binding assay) was 0.7 nM.

On uterine OT receptors, `CC1(C)[C@@H]2CC[C@@]1(CS(=O)(=O)N1CCC3(C=Cc4ccccc43)CC1)C(=NO)C2` [Example 27] displayed a concentration for half-maximal inhibition (IC50) of 490 nM. Besides, the figures for the inhibition at 10 µM at AVP-V₁ sites and at AVP-V₂ sites were 52% and 21%, respectively.

Source of the values: patent EP0450761A1, “Spirocyclic oxytocin antagonists” (MERCK & CO. INC., priority 1990, dated 1991).
